# * marks the point of attachment. FITC = O=C1OC2(c3ccc(O)cc3Oc3cc(O)ccc32)c2ccc(NC(=S)*)cc21; Ahx = NCCCCCC(=O)O
# Tested on: H460 cells
# Test: cell penetration of FITC-tagged peptides in H460 cells (confocal fluorescence imaging)
# Type: cell-based
# Settings: 3 μm, 2 hours, FIGS. 3A-3B
# Protocol: The peptides of Examples 1-19 were tested for cell penetration in H460 and HeLa cell lines as follows.
# The H460 cell line and HeLa (ATCC) were maintained in growth media then passaged every 2-3 days. Growth media for H460 was RPMI 1640, 10% fetal calf serum, sodium pyruvate, antibiotics and glutamine (GIBCO). Growth media for HeLa cells was DMEM supplemented with 10% heat-inactivated fetal calf serum, antibiotics and glutamine (GIBCO).
# Cells were plated onto Whatman glass-bottom 96-well plates or Perkin Elmer glass-bottom 96-well plates and cultured overnight. Peptide stocks were prepared in DMSO and were diluted in cell growth media for cellular uptake studies. After 2 and 24 h of peptide incubation at various concentrations, media was removed followed by three washes of acidic saline. Formaldehyde fixation, with or without Hoechst 33342 dye solution (to stain nuclei), was followed by PBS washes. Plates were imaged on the Operetta High Content Imaging system in confocal fluorescence mode using the 40×water immersion high NA objective.
row,Substance,cell penetration as determined by the fluorescence
1,FITC-6Ahx-KVFSPKKKMEFFLLF-NH2 ({FITC-Ahx}-KVFSPKKKMEFFLLF-NH2; SMILES CSCC[C@H](NC(=O)[C@H](CCCCN)NC(=O)[C@H](CCCCN)NC(=O)[C@H](CCCCN)NC(=O)[C@@H]1CCCN1C(=O)[C@H](CO)NC(=O)[C@H](Cc1ccccc1)NC(=O)[C@@H](NC(=O)[C@H](CCCCN)NC(=O)CCCCCNC(=S)Nc1ccc2c(c1)C(=O)OC21c2ccc(O)cc2Oc2cc(O)ccc21)C(C)C)C(=O)N[C@@H](CCC(=O)O)C(=O)N[C@@H](Cc1ccccc1)C(=O)N[C@@H](Cc1ccccc1)C(=O)N[C@@H](CC(C)C)C(=O)N[C@@H](CC(C)C)C(=O)N[C@@H](Cc1ccccc1)C(N)=O) [Example 12],low but still cell penetrating
2,FITC-6Ahx-LLPQWPRIRHIKLLR-NH2 ({FITC-Ahx}-LLPQWPRIRHIKLLR-NH2; SMILES CC[C@H](C)[C@H](NC(=O)[C@H](Cc1c[nH]cn1)NC(=O)[C@H](CCCNC(=N)N)NC(=O)[C@@H](NC(=O)[C@H](CCCNC(=N)N)NC(=O)[C@@H]1CCCN1C(=O)[C@H](Cc1c[nH]c2ccccc12)NC(=O)[C@H](CCC(N)=O)NC(=O)[C@@H]1CCCN1C(=O)[C@H](CC(C)C)NC(=O)[C@H](CC(C)C)NC(=O)CCCCCNC(=S)Nc1ccc2c(c1)C(=O)OC21c2ccc(O)cc2Oc2cc(O)ccc21)[C@@H](C)CC)C(=O)N[C@@H](CCCCN)C(=O)N[C@@H](CC(C)C)C(=O)N[C@@H](CC(C)C)C(=O)N[C@@H](CCCNC(=N)N)C(N)=O) [Example 19],low but still cell penetrating
3,FITC-6Ahx-MRMIRFRKKIPYLRY-NH2 ({FITC-Ahx}-MRMIRFRKKIPYLRY-NH2; SMILES CC[C@H](C)[C@H](NC(=O)[C@H](CCSC)NC(=O)[C@H](CCCNC(=N)N)NC(=O)[C@H](CCSC)NC(=O)CCCCCNC(=S)Nc1ccc2c(c1)C(=O)OC21c2ccc(O)cc2Oc2cc(O)ccc21)C(=O)N[C@@H](CCCNC(=N)N)C(=O)N[C@@H](Cc1ccccc1)C(=O)N[C@@H](CCCNC(=N)N)C(=O)N[C@@H](CCCCN)C(=O)N[C@@H](CCCCN)C(=O)N[C@H](C(=O)N1CCC[C@H]1C(=O)N[C@@H](Cc1ccc(O)cc1)C(=O)N[C@@H](CC(C)C)C(=O)N[C@@H](CCCNC(=N)N)C(=O)N[C@@H](Cc1ccc(O)cc1)C(N)=O)[C@@H](C)CC) [Example 14],low but still cell penetrating
4,FITC-6Ahx-VKIWFQNRRVRWRKR-NH2 ({FITC-Ahx}-VKIWFQNRRVRWRKR-NH2; SMILES CC[C@H](C)[C@H](NC(=O)[C@H](CCCCN)NC(=O)[C@@H](NC(=O)CCCCCNC(=S)Nc1ccc2c(c1)C(=O)OC21c2ccc(O)cc2Oc2cc(O)ccc21)C(C)C)C(=O)N[C@@H](Cc1c[nH]c2ccccc12)C(=O)N[C@@H](Cc1ccccc1)C(=O)N[C@@H](CCC(N)=O)C(=O)N[C@@H](CC(N)=O)C(=O)N[C@@H](CCCNC(=N)N)C(=O)N[C@@H](CCCNC(=N)N)C(=O)N[C@H](C(=O)N[C@@H](CCCNC(=N)N)C(=O)N[C@@H](Cc1c[nH]c2ccccc12)C(=O)N[C@@H](CCCNC(=N)N)C(=O)N[C@@H](CCCCN)C(=O)N[C@@H](CCCNC(=N)N)C(N)=O)C(C)C) [Example 13],medium

# — patent US20150183827A1, “CELL PENETRATING PEPTIDES & METHODS OF IDENTIFYING CELL PENETRATING PEPTIDES” (Hoffmann-La Roche Inc., priority 2012, published 2015)
